Reference: US20240116892A1, “HETEROCYCLIC AMIDE AND UREA COMPOUNDS AS JAK2 INHIBITORS” (Ajax Therapeutics, Inc., priority 2022, published 2024)

Target: JAK2 (JH1 domain-catalytic, Y1007F, Y1008F) kinase (Homo sapiens (Human), UniProt O60674, Y1007F/Y1008F)
Experiment: JAK2 JH1 Domain Binding Assay
Conditions: qPCR readout
How it was run: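 JH1 catalytic domain (Y1007F/Y1008F) expressed as NFkB DNA-binding-domain fusion in HEK293 cells, DNA-tagged. Competition with immobilized biotinylated ligand on streptavidin beads, 1 h at RT in PBS/Tween/BSA/DTT; bound kinase eluted with free ligand and quantified by qPCR.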

Sequence of JAK2 (JH1 domain-catalytic, Y1007F, Y1008F) kinase (O60674 849-1124 Y1007F/Y1008F): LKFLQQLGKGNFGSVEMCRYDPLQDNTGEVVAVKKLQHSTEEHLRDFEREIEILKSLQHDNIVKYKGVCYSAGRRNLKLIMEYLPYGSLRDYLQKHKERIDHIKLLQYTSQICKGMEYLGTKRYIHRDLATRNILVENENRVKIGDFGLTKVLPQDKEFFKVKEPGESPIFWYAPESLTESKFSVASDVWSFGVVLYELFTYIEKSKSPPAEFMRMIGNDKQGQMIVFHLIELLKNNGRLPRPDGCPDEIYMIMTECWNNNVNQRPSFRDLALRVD

Structure (SMILES) | Kd [nM]
C[C@@H]1CN(c2cnc3[nH]ncc3c2)CC[C@@H]1N(C)C(=O)Nc1cc(C(F)(F)F)cn(C)c1=O [Example I-70-a, 1-methyl-1-((3R,4S)-3-methyl-1-(1H-pyrazolo[3,4-b]pyridin-5-yl)piperidin-4-yl)-3-(1-methyl-2-oxo-5-(trifluoromethyl)-1,2-dihydropyridin-3-yl)urea] | < 10
C[C@H]1CN(c2cnc3[nH]ncc3c2)CC[C@H]1N(C)C(=O)Nc1cc(C(F)(F)F)cn(C)c1=O [Example I-70-b, 1-methyl-1-((3S,4R)-3-methyl-1-(1H-pyrazolo[3,4-b]pyridin-5-yl)piperidin-4-yl)-3-(1-methyl-2-oxo-5-(trifluoromethyl)-1,2-dihydropyridin-3-yl)urea] | < 10
C[C@H]1CN(c2cnc3[nH]ncc3c2)CC[C@@H]1N(C)C(=O)Nc1cc(C(F)(F)F)cn(C)c1=O [Example I-74-a, 1-methyl-1-((3S,4S)-3-methyl-1-(1H-pyrazolo[3,4-b]pyridin-5-yl)piperidin-4-yl)-3-(1-methyl-2-oxo-5-(trifluoromethyl)-1,2-dihydropyridin-3-yl)urea] | < 10
C[C@@H]1CN(c2cnc3[nH]ncc3c2)CC[C@H]1N(C)C(=O)Nc1cc(C(F)(F)F)cn(C)c1=O [Example I-74-b, 1-methyl-1-((3R,4R)-3-methyl-1-(1H-pyrazolo[3,4-b]pyridin-5-yl)piperidin-4-yl)-3-(1-methyl-2-oxo-5-(trifluoromethyl)-1,2-dihydropyridin-3-yl)urea] | 50 to 1000
CN(C(=O)Nc1cc(C(F)(F)F)cn(C)c1=O)[C@H]1CCN(c2cnc3[nH]ncc3n2)C[C@H]1F [Example I-83-a, 1-((3R,4S)-3-fluoro-1-(1H-pyrazolo[3,4-b]pyrazin-5-yl)piperidin-4-yl)-1-methyl-3-(1-methyl-2-oxo-5-(trifluoromethyl)-1,2-dihydropyridin-3-yl)urea] | < 10
CN(C(=O)Nc1cc(C(F)(F)F)cn(C)c1=O)[C@@H]1CCN(c2cnc3[nH]ncc3n2)C[C@@H]1F [Example I-83-b, 1-((3S,4R)-3-fluoro-1-(1H-pyrazolo[3,4-b]pyrazin-5-yl)piperidin-4-yl)-1-methyl-3-(1-methyl-2-oxo-5-(trifluoromethyl)-1,2-dihydropyridin-3-yl)urea] | < 10
COc1n[nH]c2ncc(N3CC[C@H](N(C)C(=O)Nc4cc(C(F)(F)F)cn(C)c4=O)[C@@H](F)C3)cc12 [Example I-84-a, 1-((3S,4S)-3-fluoro-1-(3-methoxy-1H-pyrazolo[3,4-b]pyridin-5-yl)piperidin-4-yl)-1-methyl-3-(1-methyl-2-oxo-5-(trifluoromethyl)-1,2-dihydropyridin-3-yl)urea] | < 10
COc1n[nH]c2ncc(N3CC[C@@H](N(C)C(=O)Nc4cc(C(F)(F)F)cn(C)c4=O)[C@H](F)C3)cc12 [Example I-84-b, 1-((3R,4R)-3-fluoro-1-(3-methoxy-1H-pyrazolo[3,4-b]pyridin-5-yl)piperidin-4-yl)-1-methyl-3-(1-methyl-2-oxo-5-(trifluoromethyl)-1,2-dihydropyridin-3-yl)urea] | < 10
COc1n[nH]c2ncc(N3CC[C@@H](N(C)C(=O)Nc4cc(C(F)(F)F)cn(C)c4=O)[C@@H](F)C3)cc12 [Example I-87-a, 1-((3S,4R)-3-fluoro-1-(3-methoxy-1H-pyrazolo[3,4-b]pyridin-5-yl)piperidin-4-yl)-1-methyl-3-(1-methyl-2-oxo-5-(trifluoromethyl)-1,2-dihydropyridin-3-yl)urea] | < 10
COc1n[nH]c2ncc(N3CC[C@H](N(C)C(=O)Nc4cc(C(F)(F)F)cn(C)c4=O)[C@H](F)C3)cc12 [Example I-87-b, 1-((3R,4S)-3-fluoro-1-(3-methoxy-1H-pyrazolo[3,4-b]pyridin-5-yl)piperidin-4-yl)-1-methyl-3-(1-methyl-2-oxo-5-(trifluoromethyl)-1,2-dihydropyridin-3-yl)urea] | < 10
CO[C@H]1CN(c2cnc3[nH]ncc3c2)CC[C@H]1N(C)C(=O)Nc1cc(C(F)(F)F)cn(C)c1=O [Example I-88-a, 1-((3S,4R)-3-methoxy-1-(1H-pyrazolo[3,4-b]pyridin-5-yl)piperidin-4-yl)-1-methyl-3-(1-methyl-2-oxo-5-(trifluoromethyl)-1,2-dihydropyridin-3-yl)urea] | < 10
CO[C@@H]1CN(c2cnc3[nH]ncc3c2)CC[C@@H]1N(C)C(=O)Nc1cc(C(F)(F)F)cn(C)c1=O [Example I-88-b, 1-((3R,4S)-3-methoxy-1-(1H-pyrazolo[3,4-b]pyridin-5-yl)piperidin-4-yl)-1-methyl-3-(1-methyl-2-oxo-5-(trifluoromethyl)-1,2-dihydropyridin-3-yl)urea] | < 10

Further lines, results first:

Kd [nM] | Structure (SMILES)
50 to 1000 | Cn1cc(C(F)(F)F)cc(NC(=O)N2CCC23CCN(c2cnc4[nH]ccc4n2)CC3)c1=O [Example I-67, N-(1-methyl-2-oxo-5-(trifluoromethyl)-1,2-dihydropyridin-3-yl)-7-(5H-pyrrolo[2,3-b]pyrazin-2-yl)-1,7-diazaspiro[3.5]nonane-1-carboxamide]
< 10 | CN(C(=O)Nc1cc(C(F)(F)F)cn(C)c1=O)C1CCN(c2cnc3[nH]ncc3n2)CC1 [Example I-68, 1-(1-(1H-pyrazolo[3,4-b]pyrazin-5-yl)piperidin-4-yl)-1-methyl-3-(1-methyl-2-oxo-5-(trifluoromethyl)-1,2-dihydropyridin-3-yl)urea]
< 10 | COc1n[nH]c2ncc(N3CCC(N(C)C(=O)Nc4cc(C(F)(F)F)cn(C)c4=O)CC3)cc12 [Example I-69, 1-(1-(3-methoxy-1H-pyrazolo[3,4-b]pyridin-5-yl)piperidin-4-yl)-1-methyl-3-(1-methyl-2-oxo-5-(trifluoromethyl)-1,2-dihydropyridin-3-yl)urea]
50 to 1000 | Cn1cc(C(F)(F)F)cc(NC(=O)OC2(C)CCN(c3cnc4[nH]ccc4n3)CC2)c1=O [Example I-71, 4-methyl-1-(5H-pyrrolo[2,3-b]pyrazin-2-yl)piperidin-4-yl (1-methyl-2-oxo-5-(trifluoromethyl)-1,2-dihydropyridin-3-yl)carbamate]
< 10 | CN(C(=O)Nc1cc(C(F)(F)F)cn(C)c1=O)C1CC2(C1)CN(c1cnc3[nH]ncc3n1)C2 [Example I-72, 1-(2-(1H-pyrazolo[3,4-b]pyrazin-5-yl)-2-azaspiro[3.3]heptan-6-yl)-1-methyl-3-(1-methyl-2-oxo-5-(trifluoromethyl)-1,2-dihydropyridin-3-yl)urea]
< 10 | CN(C(=O)Nc1cc(C(F)(F)F)cn(C)c1=O)C1CCN(c2cnc3cn[nH]c3c2)CC1 [Example I-73, 1-(1-(1H-pyrazolo[4,3-b]pyridin-6-yl)piperidin-4-yl)-1-methyl-3-(1-methyl-2-oxo-5-(trifluoromethyl)-1,2-dihydropyridin-3-yl)urea]
≥ 5000 | CN(C(=O)Nc1cc(C(F)(F)F)cn(C)c1=O)C1CC2(C1)CN(c1cnc3[nH]cc(C#N)c3n1)C2 [Example I-75, 1-(2-(7-cyano-5H-pyrrolo[2,3-b]pyrazin-2-yl)-2-azaspiro[3.3]heptan-6-yl)-1-methyl-3-(1-methyl-2-oxo-5-(trifluoromethyl)-1,2-dihydropyridin-3-yl)urea]
< 10 | CN(C(=O)Nc1cc(C(F)(F)F)cn(C)c1=O)C1CCN(c2cnc3[nH]c(=O)[nH]c3c2)CC1 [Example I-76, 1-methyl-3-(1-methyl-2-oxo-5-(trifluoromethyl)-1,2-dihydropyridin-3-yl)-1-(1-(2-oxo-2,3-dihydro-1H-imidazo[4,5-b]pyridin-6-yl)piperidin-4-yl)urea]
< 10 | COCc1cc2nc(N3CCC(N(C)C(=O)Nc4cc(C(F)(F)F)cn(C)c4=O)CC3)cnc2[nH]1 [Example I-77, 1-(1-(6-(methoxymethyl)-5H-pyrrolo[2,3-b]pyrazin-2-yl)piperidin-4-yl)-1-methyl-3-(1-methyl-2-oxo-5-(trifluoromethyl)-1,2-dihydropyridin-3-yl)urea]
10 to 50 | Cn1cc(C(F)(F)F)cc(NC(=O)N2CC=CC23CCN(c2cnc4[nH]ccc4n2)CC3)c1=O [Example I-78, N-(1-methyl-2-oxo-5-(trifluoromethyl)-1,2-dihydropyridin-3-yl)-8-(5H-pyrrolo[2,3-b]pyrazin-2-yl)-1,8-diazaspiro[4.5]dec-3-ene-1-carboxamide]
10 to 50 | CN(C(=O)Nc1cc(C(F)(F)F)cn(C)c1=O)[C@H]1[C@@H]2CC[C@H]1CN(c1cnc3[nH]ccc3n1)C2 [Example I-79, 1-(3-(5H-pyrrolo[2,3-b]pyrazin-2-yl)-3-azabicyclo[3.2.1]octan-8-yl)-1-methyl-3-(1-methyl-2-oxo-5-(trifluoromethyl)-1,2-dihydropyridin-3-yl)urea]
10 to 50 | CN(C(=O)Nc1cc(C(F)(F)F)cn(C)c1=O)[C@H]1[C@@H]2CC[C@H]1CN(c1cnc3[nH]ncc3c1)C2 [Example I-80, 1-(3-(1H-pyrazolo[3,4-b]pyridin-5-yl)-3-azabicyclo[3.2.1]octan-8-yl)-1-methyl-3-(1-methyl-2-oxo-5-(trifluoromethyl)-1,2-dihydropyridin-3-yl)urea]
10 to 50 | Cn1cc(C(F)(F)F)cc(NC(=O)N2CC=CC23CCN(c2cnc4[nH]ncc4c2)CC3)c1=O [Example I-81, N-(1-methyl-2-oxo-5-(trifluoromethyl)-1,2-dihydropyridin-3-yl)-8-(1H-pyrazolo[3,4-b]pyridin-5-yl)-1,8-diazaspiro[4.5]dec-3-ene-1-carboxamide]
< 10 | Cn1cc(C(F)(F)F)cc(NC(=O)C2(C3CCN(c4cnc5[nH]ccc5n4)CC3)CC2)c1=O [Example I-85, 1-(1-(5H-pyrrolo[2,3-b]pyrazin-2-yl)piperidin-4-yl)-N-(1-methyl-2-oxo-5-(trifluoromethyl)-1,2-dihydropyridin-3-yl)cyclopropane-1-carboxamide]
< 10 | CN(C(=O)Nc1cc(C(F)(F)F)cn(C)c1=O)C1CCN(c2cnc3[nH]n(C)c(=O)c3c2)CC1 [Example I-86, 1-methyl-3-(1-methyl-2-oxo-5-(trifluoromethyl)-1,2-dihydropyridin-3-yl)-1-(1-(2-methyl-3-oxo-2,3-dihydro-1H-pyrazolo[3,4-b]pyridin-5-yl)piperidin-4-yl)urea]
